The text below walks through data of patent publication US5840684A, “Glycopeptide antibiotic derivatives” (Eli Lilly and Company, priority 1995, dated 1998).

Each structure is given as a SMILES string. Values after ≈ are worked out from the molar mass of the structure shown.

For experiment [1], the system named is Entercoccus faecium 180-1. In words: broth micro-dilution MIC. Format: cell-based. Here is the method:
(§1) The MIC's were determined using a standard broth micro-dilution assay.

The test system of another experiment is Entercoccus faecium 276. In words: broth micro-dilution MIC. In kind it is cell-based. As for the experimental part: as §1
Background: Broth dilution looks for growth in wells or tubes with falling amounts of substance.

Experiment [2] relates to Staphylococcus aureus 446. Description: broth micro-dilution MIC. In kind it is cell-based. As for the experimental part:
as §1

The subject of experiment [3] is Staphylococcus aureus 447. Description: broth micro-dilution MIC. Format: cell-based. Here is the method: as §1
Experiment [4] concerns Staphylococcus aureus 489. Description: broth micro-dilution MIC. In kind it is cell-based. As for the experimental part:
as §1

In experiment [5] the test system is Staphylococcus aureus SA1199A. In words: broth micro-dilution MIC. Format: cell-based. Here is the method:
as §1

Experiment [6] deals with Staphylococcus aureus SA1199. In words: broth micro-dilution MIC. Format: cell-based. Here is the method:
as §1

The test system of experiment [7] is Staphylococcus aureus X400. Description: broth micro-dilution MIC. Format: cell-based. As for the experimental part: as §1
Experiment [8] has as its system Staphylococcus aureus X778. In words: broth micro-dilution MIC. Format: cell-based. As for the experimental part:
as §1

The subject of experiment [9] is Streptococcus pyogenes C203. In words: broth micro-dilution MIC. Format: cell-based. As for the experimental part: as §1
In the next experiment the test system is Entercoccus faecium 2041. Description: broth micro-dilution MIC. Format: cell-based. The note with it: Entercoccus faecium 2041. Here is the method:
(§2) The formula I compounds have in vitro and in vivo activity against Gram-positive pathogenic bacteria. The MIC's were determined using a standard broth micro-dilution assay.

Experiment [10] deals with Enterococcus gallinarum 245. Description: broth micro-dilution MIC. Conditions: Enterococcus gallinarum 245. In kind it is cell-based. Here is the method:
as §2

Experiment [11] deals with Haemophilus influenzae RD. In words: broth micro-dilution MIC. The note with it: Haemophilus influenzae RD. In kind it is cell-based. Here is the method: as §2
Experiment [12] concerns Staphylococcus epidermidis 270. In words: broth micro-dilution MIC. Format: cell-based. Here is the method: as §2
Experiment [13] deals with Staphylococcus haemolyticus 105. Description: broth micro-dilution MIC. In kind it is cell-based. As for the experimental part: as §2
The subject of experiment [14] is Staphylococcus haemolyticus 415. In words: broth micro-dilution MIC. Format: cell-based. As for the experimental part:
as §2

Experiment [15] has as its system Streptococcus pneumoniae P1. In words: broth micro-dilution MIC. Format: cell-based. Here is the method:
as §2

Experiment [16] has as its system vancomycin-resistant enterococci. Description: broth micro-dilution, mean geometric MIC. In kind it is cell-based, Enterococcus faecium and Enterococcus faecalis. The note with it: enterococci, 24-hour incubation.
The test system of experiment [17] is vancomycin-susceptible enterococci. In words: broth micro-dilution, mean geometric MIC. In kind it is cell-based, Enterococcus faecium and Enterococcus faecalis. Conditions: enterococci, 24-hour incubation.
The test system of experiment [18] is Staphylococcus aureus S13E. In kind it is cell-based. As for the experimental part: as §1
The test system of experiment [19] is Staphylococcus aureus SA1199B. Format: cell-based. Here is the method: as §1
The test system of the next experiment is Entercoccus faecium 180. In words: broth micro-dilution MIC. Format: cell-based. Conditions: Entercoccus faecium 180. Here is the method:
as §2

Consider `CNC(CC(C)C)C(=O)NC1C(=O)NC(CC(N)=O)C(=O)NC2C(=O)NC3C(=O)NC(C(=O)NC(C(=O)O)c4cc(O)cc(O)c4-c4cc3ccc4O)C(OC3CC(C)(N)C(O)C(C)O3)c3ccc(c(Cl)c3)Oc3cc2cc(c3OC2OC(CO)C(O)C(O)C2OC2CC(C)(NCc3ccc(-c4ccccc4C)c(C)c3)C(O)C(C)O2)Oc2ccc(cc2Cl)C1O` (stereo not drawn) [Compound 237], for which the MIC in [1] is at most 0.06 µg/mL; against Entercoccus faecium 276, 1 µg/mL (≈ 0.56 µM); in [2], 2 µg/mL (≈ 1.12 µM); in experiment [3], 1 µg/mL (≈ 0.56 µM); in experiment [4] it was 0.5 µg/mL (≈ 0.28 µM); in experiment [5], at most 0.06 µg/mL. The MIC in experiment [6] was 1 µg/mL (≈ 0.56 µM); in experiment [7], 1 µg/mL (≈ 0.56 µM); in [8] it was 0.5 µg/mL (≈ 0.28 µM); in experiment [9] it was at most 0.06 µg/mL; with Entercoccus faecium 2041 it was 0.125 µg/mL (≈ 0.07 µM); in [10], 1 µg/mL (≈ 0.56 µM). Also, the MIC in experiment [11] was 8 µg/mL (≈ 4.48 µM); in experiment [12] it was 0.5 µg/mL (≈ 0.28 µM); in [13] it was 1 µg/mL (≈ 0.56 µM); in [14], 1 µg/mL (≈ 0.56 µM); in [15] it was at most 0.06 µg/mL. Moreover, the “mean geometric MIC, Vancomycin Resistant Strains” value in experiment [16] came out at 1.0 µg/mL. Also, the “mean geometric MIC, Vancomycin Sensitive Strains” value in experiment [17] was 0.048 µg/mL.
As to `CNC(CC(C)C)C(=O)NC1C(=O)NC(CC(N)=O)C(=O)NC2C(=O)NC3C(=O)NC(C(=O)NC(C(=O)O)c4cc(O)cc(O)c4-c4cc3ccc4O)C(OC3CC(C)(N)C(O)C(C)O3)c3ccc(c(Cl)c3)Oc3cc2cc(c3OC2OC(CO)C(O)C(O)C2OC2CC(C)(NCc3ccc(I)s3)C(O)C(C)O2)Oc2ccc(cc2Cl)C1O` (stereo not drawn) [Compound 74], the MIC in [18] is 0 µg/mL; in experiment [19], 1 µg/mL (≈ 0.551 µM); in experiment [1], at most 0.06 µg/mL; in [2], 4 µg/mL (≈ 2.2 µM); in [3] it was 1 µg/mL (≈ 0.551 µM); in experiment [4], at most 0.06 µg/mL. The MIC in [5] is at most 0.06 µg/mL; in [6], at most 0.06 µg/mL; in experiment [7] it was at most 0.06 µg/mL; in experiment [8], at most 0.06 µg/mL; in experiment [9], at most 0.06 µg/mL; against Entercoccus faecium 180, 0.5 µg/mL (≈ 0.276 µM). The MIC against Entercoccus faecium 2041 was at most 0.06 µg/mL; in experiment [10], at most 0.06 µg/mL; in [11], 0.5 µg/mL (≈ 0.276 µM); in experiment [12] it was 0.5 µg/mL (≈ 0.276 µM); in experiment [13], 4 µg/mL (≈ 2.2 µM); in [14], 4 µg/mL (≈ 2.2 µM). The compound further returned an MIC in experiment [15] of at most 0.06 µg/mL. Besides, in experiment [16], the “mean geometric MIC, Vancomycin Resistant Strains” value is 11 µg/mL.
With `CNC(CC(C)C)C(=O)NC1C(=O)NC(CC(N)=O)C(=O)NC2C(=O)NC3C(=O)NC(C(=O)NC(C(=O)O)c4cc(O)cc(O)c4-c4cc3ccc4O)C(OC3CC(C)(N)C(O)C(C)O3)c3ccc(c(Cl)c3)Oc3cc2cc(c3OC2OC(CO)C(O)C(O)C2OC2CC(C)(NCCCCCCc3ccccc3)C(O)C(C)O2)Oc2ccc(cc2Cl)C1O` (stereo not drawn) [Compound 196], the MIC in experiment [18] is 1 µg/mL (≈ 0.571 µM); in [19] it was 0.5 µg/mL (≈ 0.285 µM); in [1], at most 0.06 µg/mL; in [2] it was 0.5 µg/mL (≈ 0.285 µM); in experiment [3] it was 0.5 µg/mL (≈ 0.285 µM); in experiment [4] it was 1 µg/mL (≈ 0.571 µM). Besides, the MIC was at most 0.06 µg/mL in [5]; 0.5 µg/mL (≈ 0.285 µM) in experiment [6]; 0.5 µg/mL (≈ 0.285 µM) in experiment [7]; 1 µg/mL (≈ 0.571 µM) in experiment [8]; at most 0.06 µg/mL in experiment [9]; 0.5 µg/mL (≈ 0.285 µM) against Entercoccus faecium 180. Besides, the MIC against Entercoccus faecium 2041 is at most 0.06 µg/mL; in experiment [10], 1 µg/mL (≈ 0.571 µM); in experiment [11] it was 32 µg/mL (≈ 18.3 µM); in experiment [13] it was 0.5 µg/mL (≈ 0.285 µM); in [14], 1 µg/mL (≈ 0.571 µM); in [15], at most 0.06 µg/mL. Besides, in [16], the “mean geometric MIC, Vancomycin Resistant Strains” value came to 1.7 µg/mL. Further, the “mean geometric MIC, Vancomycin Sensitive Strains” value in experiment [17] was 0.027 µg/mL.
In the case of `CNC(CC(C)C)C(=O)NC1C(=O)NC(CC(N)=O)C(=O)NC2C(=O)NC3C(=O)NC(C(=O)NC(C(=O)O)c4cc(O)cc(O)c4-c4cc3ccc4O)C(OC3CC(C)(N)C(O)C(C)O3)c3ccc(c(Cl)c3)Oc3cc2cc(c3OC2OC(CO)C(O)C(O)C2OC2CC(C)(NCc3ccc(-c4ccc(O)cc4)cc3)C(O)C(C)O2)Oc2ccc(cc2Cl)C1O` (stereo not drawn) [Compound 20], the MIC in experiment [18] is at most 0.06 µg/mL; in experiment [19] it was 0.5 µg/mL (≈ 0.282 µM); in [1] it was at most 0.06 µg/mL; in experiment [2] it was 0.5 µg/mL (≈ 0.282 µM); in [3] it was 4 µg/mL (≈ 2.25 µM); in experiment [4], 0.5 µg/mL (≈ 0.282 µM). In addition, the MIC is at most 0.06 µg/mL in experiment [5]; 2 µg/mL (≈ 1.13 µM) in experiment [6]; 0.5 µg/mL (≈ 0.282 µM) in [7]; at most 0.06 µg/mL in experiment [9]; 1 µg/mL (≈ 0.563 µM) against Entercoccus faecium 180; at most 0.06 µg/mL in the experiment on Entercoccus faecium 2041. Also, the MIC in experiment [11] was 8 µg/mL (≈ 4.51 µM); in experiment [12] it was 2 µg/mL (≈ 1.13 µM); in experiment [13] it was 8 µg/mL (≈ 4.51 µM); in experiment [14], 4 µg/mL (≈ 2.25 µM); in experiment [15], at most 0.06 µg/mL. For the same compound, the “mean geometric MIC, Vancomycin Resistant Strains” value in experiment [16] was 4.8 µg/mL. Also, in experiment [17], the “mean geometric MIC, Vancomycin Sensitive Strains” value was 0.38 µg/mL.
As to `CNC(CC(C)C)C(=O)NC1C(=O)NC(CC(N)=O)C(=O)NC2C(=O)NC3C(=O)NC(C(=O)NC(C(=O)O)c4cc(O)cc(O)c4-c4cc3ccc4O)C(OC3CC(C)(N)C(O)C(C)O3)c3ccc(c(Cl)c3)Oc3cc2cc(c3OC2OC(CO)C(O)C(O)C2OC2CC(C)(NCc3ccc(Oc4ccccc4[N+](=O)[O-])cc3)C(O)C(C)O2)Oc2ccc(cc2Cl)C1O` (stereo not drawn) [Compound 70], the MIC in experiment [18] is at most 0.06 µg/mL; in experiment [19], at most 0.06 µg/mL; in experiment [1], at most 0.06 µg/mL; in the experiment on Entercoccus faecium 276, at most 0.06 µg/mL; in experiment [3], 0.5 µg/mL (≈ 0.275 µM); in experiment [4], at most 0.06 µg/mL. Besides, the MIC in [5] is at most 0.06 µg/mL; in experiment [6] it was at most 0.06 µg/mL; in experiment [7] it was at most 0.06 µg/mL; in experiment [8], at most 0.06 µg/mL; against Entercoccus faecium 180, 0.5 µg/mL (≈ 0.275 µM); with Entercoccus faecium 2041, at most 0.06 µg/mL. In addition, the MIC in experiment [10] was 2 µg/mL (≈ 1.1 µM); in [11] it was 16 µg/mL (≈ 8.79 µM); in [12], 0.25 µg/mL (≈ 0.137 µM); in experiment [13] it was 2 µg/mL (≈ 1.1 µM); in experiment [14], 2 µg/mL (≈ 1.1 µM). Besides, in experiment [16], the “mean geometric MIC, Vancomycin Resistant Strains” value was 2.0 µg/mL. Further, the “mean geometric MIC, Vancomycin Sensitive Strains” value in experiment [17] is 0.092 µg/mL.
As for `CNC(CC(C)C)C(=O)NC1C(=O)NC(CC(N)=O)C(=O)NC2C(=O)NC3C(=O)NC(C(=O)NC(C(=O)O)c4cc(O)cc(O)c4-c4cc3ccc4O)C(O)c3ccc(c(Cl)c3)Oc3cc2cc(c3OC2OC(CO)C(O)C(O)C2OC2CC(C)(NCc3ccc(-c4ccccc4)cc3)C(O)C(C)O2)Oc2ccc(cc2Cl)C1O` (stereo not drawn) [Compound 181], the MIC in experiment [18] is at most 0.06 µg/mL; in experiment [19], at most 0.06 µg/mL; in experiment [1], at most 0.06 µg/mL; in the experiment with Entercoccus faecium 276, 2 µg/mL (≈ 1.24 µM); in experiment [2], at most 0.06 µg/mL; in experiment [3], at most 0.06 µg/mL. The MIC in [4], in experiment [5], in experiment [6], in experiment [7], in [8] and in experiment [9] was at most 0.06 µg/mL each time. The MIC was 4 µg/mL (≈ 2.48 µM) with Entercoccus faecium 180; at most 0.06 µg/mL in experiment [10]; 32 µg/mL (≈ 19.8 µM) in experiment [11]; 0.25 µg/mL (≈ 0.155 µM) in experiment [13]; 1 µg/mL (≈ 0.619 µM) in [14]; at most 0.06 µg/mL in [15]. Further, the “mean geometric MIC, Vancomycin Resistant Strains” value in experiment [16] is 8.0 µg/mL. The “mean geometric MIC, Vancomycin Sensitive Strains” value in experiment [17] stood at 0.060 µg/mL.
